The values that follow come from paper PMC9866218, “Characterization and Chemical Synthesis of Cm39 (α-KTx 4.8): A Scorpion Toxin That Inhibits Voltage-Gated K^+ Channel KV1.2 and Small- and Intermediate-Conductance Ca^2+-Activated K^+ Channels KCa2.2 and KCa3.1” (Toxins, 2023).

One assay has as its target KCa3.1 channel. Particulars: cited from earlier work. The text has this:
(§1) Most of the peptides in subfamily 4 are very similar (percentage identity ranging from 78 to 97%) and share common pharmacological targets, including KV1.3, KV1.2 and KCa channels. […] Not all subfamily 4 toxins have been tested on the KV1.3 channel, but for those that were te ... || To date, a number of scorpion-derived peptide toxins are known to block K^+ channels with great affinity. However, these native toxins target more than one channel which compromises their therapeutic use in the management of channelopathies.

The next assay deals with KV1.2. Particulars: cited from earlier work. An excerpt: Most of the peptides in subfamily 4 are very similar (percentage identity ranging from 78 to 97%) and share common pharmacological targets, including KV1.3, KV1.2 and KCa channels. […] Not all subfamily 4 toxins have been tested on the KV1.3 channel, but for those that were te ...
Assay [1] concerns several KV1.x channel subtypes and Ca^2+-activated channels. To be noted: high affinity; cited from earlier work. The text has this: To date, a number of scorpion-derived peptide toxins are known to block K^+ channels with great affinity. However, these native toxins target more than one channel which compromises their therapeutic use in the management of channelopathies.
In a further assay the target is T1, hKV1.2 (Homo sapiens, UniProt P16389).
T1 construct: GFP (vector pCMV6-AC-GFP); host or cells: CHO cells, transient transfection
Kind of assay: Whole-cell patch-clamp, block of KV1.2 current. It counts as cell-based. To be noted: fully reversible blocker as positive control. The text has this: (§2) We, therefore, aimed at testing the pharmacological activity of sCm39 on a battery of various potassium and sodium ion channels. Among the tested channels were six members of human voltage-gated K^+ (hKV) channels from Shaker family, hKV1.1-hKV1.6 (Figure 3A–F) and three members of Ca^2+-activated potassium channel; hKCa2.2 (SK2, Figure 3I), the small-conductance Ca^2+-activated channel; hKCa3.1 (IKCa1, SK4. Figure 3J), the intermediate-conductance Ca^2+-activated channel expressed in T lymphocytes; and mKCa1.1 (BK, Slo1, MaxiK, Figure 3H), the large-conductance voltage- and Ca^2+-activated channel of mice. In addition, we also screened the effect of Cm39 on hKV11.1 (hERG1, Figure 3G), a voltage-gated cardiac K^+ channel, and two human voltage-gated sodium (hNaV) channels, hNaV1.4 (Figure 3K) and hNaV1.5 (Figure 3L), expressed in skeletal and cardiac muscles, respectively. These ion channels were heterologously expressed in the CHO or HEK cell lines except for KV1.3. Human peripheral T lymphocytes. They were stimulated with Phytohemagglutinin A (PHA) to increase the KV1.3 channel expression, and Ca^2+-free intracellular solution was used to avoid KCa3.1 channel activation. Appropriate depolarization protocols were used to record ionic currents in voltage-clamped cells (see Figure 3 insets and Material and Methods for details). Freshly dissolved sCm39 in extracellular solution was applied at 1 µM concentration on the cell using a custom-built micro-perfusion system at ~200 µL/min flow rate.
For comprehensive characterization of Cm39 activity on KV1.2, we determined the concentration–response of current inhibition by Cm39, the kinetic parameters of its binding and assessed the effect on voltage dependence of steady-state activation. The whole-cell KV1.2 currents were recorded in CHO cells using depolarization pulses to +50mV from −120mV holding potential (Vh) every 15 s. Since the activation kinetics of KV1.2 are highly variable, the duration of pulses was set on a cell-by-cell basis between 15–300 ms to allocate sufficient time for reaching maximum currents at the test potentials. […] The remaining current fractions (RCF = I/I0, where I0 is the peak current in the absence of the toxin, and I is the peak current at equilibrium block in the presence of sCm39 at a given concentration) were calculated and plotted as a function of toxin concentration.
Single-exponential decay functions were fitted to the normalized peak currents in the presence of each sCm39 concentration (Figure 4C, data points in red shades) to determine the time constant for the onset of block (τon, wash-in or association time constant). The dissociation time constant for the relief from block (τoff, wash-out time constant) was obtained by fitting a single-exponential rising function to the normalized peak currents in the wash-out procedure (Figure 4C, data point in black empty circles). Assuming a simple bimolecular interaction between the toxin and the channel, time constants for the onset and recovery from the block can be stated as follows:(1) τon=1/kon×[toxin]+koff , τoff=1/koff where kon represents the second-order association rate constant, koff indicates the first-order dissociation rate constant and [toxin] is the sCm39 concentration. […] The second-order rate constant of association (kon) was determined by fitting the 1/τon data points using linear regression with koff as the y-intercept.
(Patch clamp records ionic current or voltage across a cell membrane.)

For another assay, the system named is KV1.3. To be noted: cited from earlier work. The text has this:
Most of the peptides in subfamily 4 are very similar (percentage identity ranging from 78 to 97%) and share common pharmacological targets, including KV1.3, KV1.2 and KCa channels. […] Not all subfamily 4 toxins have been tested on the KV1.3 channel, but for those that were te ... || Generally, scorpion toxins interact at two different regions of KV channels to modify their function. Typical functional dyad (lysine and tyrosine) bearing toxins bind to the extracellular vestibule in such a way that lysine goes deep into selectivity filter, thereby plugging the pore of the channel. Other toxins interact with the voltage-sensing domain (VSD) causing the significant change in gating of the channel.

In the next assay the test system is KCa2.2 channel. Particulars: cited from earlier work.
From the text: as §1

In another assay the test system is mKCa1.1. Type of assay: cell-based, mice.
From the text: as §2, with “rate. […]” for “rate.”
Whole-cell currents were recorded in voltage-clamped cells following standard protocols by using a Multiclamp 700B amplifier connected to a computer with Axon Digidata1440 digitizer and for data acquisition, Clampex 10.7 software was used (Molecular Devices). […]

In a further assay the test system is hKV1.6. It counts as cell-based, human.
From the text: as §2
(§3) Chinese hamster ovary (CHO) cells (gift from Yosef Yarden, Weizmann Institute of Science, Rehovot, Israel) were maintained by culturing in Dulbecco’s modified Eagle medium (DMEM, Gibco) supplemented with 2 mM L-glutamine, 10% FBS, 100 µg/mL streptomycin and 100 U/mL penicillin-g (Sigma-Aldrich) at a density of 0. 5−1×10^6 cells per mL in a humidified incubator at 37 °C and 5% CO2. Cells were passaged 3 times in a week following a 2–5 min incubation in 0.05% trypsin-EDTA solution at 37 °C. Cultures were used up to passage number 20. PCR-based tests were routinely used to detect mycoplasma infection, only mycoplasma-free cultures were used for experiments.
(§4) Those plasmids which lack a fluorescent tag were co-transfected with a plasmid encoding GFP. Transfections were performed at a GFP:channel DNA molar ratio of 1:10 using the Lipofectamine 2000 kit (Invitrogen) according to the manufacturer’s protocol. […] Generally, currents were recorded 24 to 48 h post transfection.
(§5) For the measurement of KV1.x, mKCa1.1 and NaV1.x currents the extracellular solution was composed of (in mM) 145 NaCl, 5 KCl, 2.5 CaCl2, 1 MgCl2, 10 HEPES and 5.5 glucose, pH 7.35. In the HK-150 and Na^+-free bath solution bath all Na^+ was substituted by K^+ or Choline-Cl, respectively, other ingredients remained unchanged. In the various TEA^+-containing solutions, Na^+ was substituted by tetraethylammonium-Cl in equimolar concentration (Figure 3). The bath solution for KCa2.2 and KCa3.1 consisted of (in mM) 145 L-Aspartic Na^+ salt, 5 KCl, 2.5 CaCl2, 1 MgCl2, 5.5 glucose and 10 HEPES, pH 7.4 and for KV11.1 (in mM) 140 Choline-Cl, 5 KCl, 2 MgCl2, 2 CaCl2, 10 HEPES, 20 glucose and 0.1 CdCl2, pH 7.35. The osmolarity of bath solutions was ranging between 302 to 308 mOsm/L. A total of 0.1 mg/mL bovine serum albumin (BSA, Sigma-Aldrich, Budapest, Hungary) was added to all the bath solutions before the patch-clamp assay to avoid toxin adsorption to the plastic surfaces of the perfusion system. Internal or pipette solution for recording KV1.x and mKCa1.1 currents consisted of (in mM) 140 KF, 2 MgCl2, 1 CaCl2, 11 EGTA and 10 HEPES, pH 7.22.

A further assay concerns hKV1.1. It counts as cell-based, human.
From the text: as §2, §3, §4, §5

The test system of a further assay is hKV1.3. Type of assay: cell-based, human.
From the text: as §2
For the measurement of KV1.x, mKCa1.1 and NaV1.x currents the extracellular solution was composed of (in mM) 145 NaCl, 5 KCl, 2.5 CaCl2, 1 MgCl2, 10 HEPES and 5.5 glucose, pH 7.35. In the HK-150 and Na^+-free bath solution bath all Na^+ was substituted by K^+ or Choline-Cl, respectively, other ingredients remained unchanged. […]
Whole-cell currents were recorded in voltage-clamped cells following standard protocols by using a Multiclamp 700B amplifier connected to a computer with Axon Digidata1440 digitizer and for data acquisition, Clampex 10.7 software was used (Molecular Devices).

Bridge positions count the residues as written; N and C are the ends. Ends that are not written are not given here.

T1 sequence (P16389 whole entry): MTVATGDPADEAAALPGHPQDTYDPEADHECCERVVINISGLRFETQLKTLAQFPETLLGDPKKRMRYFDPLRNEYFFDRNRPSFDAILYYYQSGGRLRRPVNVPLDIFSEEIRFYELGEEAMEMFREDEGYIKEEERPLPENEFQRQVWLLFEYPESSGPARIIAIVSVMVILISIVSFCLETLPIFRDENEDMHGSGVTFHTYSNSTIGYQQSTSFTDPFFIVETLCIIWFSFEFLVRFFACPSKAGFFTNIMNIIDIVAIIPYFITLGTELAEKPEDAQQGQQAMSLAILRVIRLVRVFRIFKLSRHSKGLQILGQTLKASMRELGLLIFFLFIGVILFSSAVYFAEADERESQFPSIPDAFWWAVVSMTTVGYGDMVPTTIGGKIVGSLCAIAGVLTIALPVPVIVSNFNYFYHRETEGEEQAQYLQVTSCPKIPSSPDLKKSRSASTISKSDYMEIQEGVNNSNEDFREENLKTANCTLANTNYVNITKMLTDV

In the case of ChTx, the equilibrium dissociation constant (Kd) at KCa3.1 channel is 5 nM. Besides, in the assay with KV1.2, the “effect on KV1.2” value was “shows effects”. Besides, in assay [1], the affinity range entry was “picomolar to nanomolar”. Further, the “current response to positive control” value with hKV1.2 is on record as “decrease in the current”. Further, the “effect on KV1.3” value in the assay on KV1.3 was “shows effects”.

Turning to “MgTx (TIINVKCTSPKQCLPPCKAQFGQSAGAKCMNGKCKCYPH; UniProt P40755 1-39, looked up)”, in [1], the affinity range entry is recorded as “picomolar to nanomolar”.

With “apamin (CNCKAPETALCARRCQQH-NH2; disulfide 1-11, 3-15; ends not checked; UniProt P01500 28-45, looked up)”, the “blocking effect on KCa2 (small-conductance K^+ channel, SK)” value in the assay on KCa2.2 channel was “picomolar range”.

Take “Leiurotoxin I: isolated from Leiurus quinquestriatus hebraeus (AFCNLRMCQLSCRSLGLLGKCIGDKCECVKH; UniProt P16341 1-31, looked up)”: in the assay on KCa2.2 channel (small-conductance Ca^2+-activated potassium channel KCa2.x subtypes), the “inhibition of KCa2.x subtypes” value is listed as “potent inhibitor”.

In the case of `CC[N+](CC)(CC)CC` [TEA^+, tetraethylammonium chloride, reference compound], the “current response to positive control” value with mKCa1.1, in the assay with hKV1.6, in the assay with hKV1.1 and in the assay with hKV1.3 was “decrease in the current” in each case.

One may read the Kd as the constant that tells how readily two partners part at equilibrium.
